Measurements from patent US11247976B2, “Synthetic ligands that modulate the activity of the RhlR quorum sensing receptor” (Wisconsin Alumni Research Foundation, priority 2016, dated 2022).
“Also recorded” adds a separate entry of the source.

Tests used:
[1] = target: T1, RhlR (Pseudomonas aeruginosa, UniProt P54292); experiment: E. coli RhlR reporter antagonism assay vs 10 μM BHL (JLD271/pJN105R2/pSC11-rhlI*); format: cell-based, P. aeruginosa; details: for Maximum Inhibition (%): E. coli reporter, relative to activation of 10 μM BHL alone
T1 construct: expressed in transfected cells; host or cells: E. coli JLD271 (ΔsdiA) with pJN105R2 (arabinose-induced) and pSC11-rhlI*
T1 sequence (P54292 whole entry): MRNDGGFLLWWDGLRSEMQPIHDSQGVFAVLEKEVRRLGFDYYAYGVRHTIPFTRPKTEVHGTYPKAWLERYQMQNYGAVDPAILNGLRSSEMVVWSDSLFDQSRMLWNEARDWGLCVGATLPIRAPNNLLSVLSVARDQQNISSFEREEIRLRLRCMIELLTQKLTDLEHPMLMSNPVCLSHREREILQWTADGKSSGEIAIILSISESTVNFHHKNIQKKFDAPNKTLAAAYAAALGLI
Description: (§1) All media and reagents for bacterial culture were purchased from commercial sources. Bacteria were cultured in Luria-Bertani broth (LB) at 37° C. with shaking at 200 rpm unless otherwise noted. The bacterial reporter strains used for this study were (i) the heterologous E. coli strain JLD271 (ΔsdiA) harboring the RhlR expression plasmid pJN105R2 and the rhlI-lacZ transcriptional fusion reporter pSC11-rhlI*, (ii) the heterologous E. coli strain JLD271 (ΔsdiA) harboring the LasR expression plasmid pJN105L and the […] transcriptional fusion reporter pSC11, and (iii) the P. aeruginosa strain PAO-JP2 (ΔlasrhlI) harboring the rhlI-gfp transcriptional fusion reporter prhlI-LVAgfp. Reporter strains JLD271/pJN105R2/pSC11-rhlI* and JLD271/pJN105L/pSC11 were grown in LB containing 100 μg/mL ampicillin and 10 μg/mL gentamicin. Freezer stocks of bacterial strains were maintained at −80° C. in 1:1 LB:50% glycerol.
To evaluate the modulatory activities of library compounds on RhlR and LasR using E. coli reporters, the strains JLD271/pJN105R2/pSC11-rhlI* and JLD271/pJN105L/pSC11 were used, respectively, as previously described.^38, 51 The following modifications were used in the RhlR agonism reporter assay, non-native compounds (10 μM or 1 mM) were compared to 1 mM BHL as the positive control. Briefly, a subculture was prepared by diluting an overnight culture 1:10 with fresh media containing 100 μg/mL ampicillin and 10 μg/mL gentamicin, and was incubated until it had grown to OD600=0.45. In all assays, L-arabinose was added to a final concentration of 4 mg/mL to induce RhlR expression. For RhlR agonism assays, activities of test compounds were measured relative to 1 mM BHL (the concentration required to induce a maximal level of RhlR activity). […] Activity was measured relative to 10 μM BHL. Inhibition was calculated by subtracting 100% from the relative activity value. Thus, 0% inhibition mimics represents no competitive displacement of 10 μM BHL by a test compound. In all assays, modifications were made to the standard Miller assay protocol to accommodate the use of the chlorophenol red-β-D-galactopyranoside (CPRG) β-galactosidase substrate. After cell lysis, 150 μL of the aqueous layer was transferred from each well of a solvent-resistant 96-well microtiter plate to the wells of a new clear, flat-bottom 96-well microtiter plate. CPRG (4 mg/mL in phosphate-buffered saline) was added to each well in 25 μL volumes. Plates were incubated at 30° C. until the positive control wells developed a red color (approximately 30 min). The amount of processed CPRG substrate was assessed by measuring the absorbance of each well at 570 nm. Enzymatic activity was calculated using the following equation: adjusted Miller units=1000·Abs570/(OD600·t·V),
(§2) where t is the incubation time of substrate with lysate and V is the volume of culture lysed.
The RhlR-modulatory activity of the J library compounds was assessed in a heterologous reporter strain (E. coli JLD271 harboring plasmids pJN105R2 and pSC11-rhlI*) in order to isolate the RhlR receptor from upstream QS regulation (e.g. regulation by LasR). Thus, the extent to which compounds were directly modulating RhlR could be determined. These assays were performed by incubating compound-treated, mid-log phase E. coli reporter cells in 96-well microtiter plates, followed by Miller assay evaluation of ß-galactosidase activity.
RhlR agonism and antagonism screens of each compound were performed initially at 10 μM.

[2] = target: T1, RhlR; experiment: P. aeruginosa RhlR reporter antagonism assay vs 10 μM BHL (PAO-JP2/prhlI-LVAgfp); format: cell-based
Description: FIGS. 10A and B illustrate exemplary dose-response curves for RhlR antagonism in the E. coli JLD271/pJN105R2/pSC11-rhlI* reporter strain vs. 10 μM BHL (FIG. 10A) and in the P. aeruginosa PAO-JP2/prhlI-LVAgfp reporter strain vs. 10 μM BHL (FIG. 10B).
(§3) To evaluate the RhlR-modulatory activities of selected compounds in P. aeruginosa, the ΔlasIrhlI strain PAO-JP2 harboring plasmid prhlI-LVAgfp was used as previously reported.^38 Briefly, a subculture was prepared by diluting an overnight culture 1:100 in fresh LB and was grown to OD600=0.3. […] Subculture was treated with 100 nM OdDHL (to induce native expression of RhlR) by adding the appropriate amount of OdDHL stock solution in DMSO. The subculture was then dispensed ([…] aliquots) into each synthetic compound-containing well of the microtiter plate.
(§4) Plates were incubated at 37° C. for 6 h, and GFP production was monitored by using a Synergy 2 plate reader (λex=500 nm, λem=540 nm; BioTek, Winooski, Vt.) and quantified with Gen5 1.05 software (BioTek). The final OD600 for each well was measured to normalize GFP production to cell density. All synthetic compounds were tested in triplicate, and three separate trials were performed with unique cultures. Agonism dose-response analyses were performed by testing compounds over a range of concentrations with the RhlR reporter.

[3] = Hydrolytic stability in buffers of varying pH by HPLC; format: physicochemical; details: room temperature
Description: To assess the relative stability of the thiolactone and homoserine lactone moieties, stability studies were performed as reported previously,^53 with the following changes. Compounds RN22 and E22 (50 μM) were dissolved in either 1 mM 2-(N-morpholino)-ethanesulfonic acid (MES) buffer at pH 6, or 1 mM tris(hydroxymethyl)-aminomethane (TRIS) buffer at pH 7, pH 8, or pH 9. Solutions were placed static at room temperature, and 150 μL aliquots were taken every two hours for eight hours, then again at 24 hours. Samples were immediately separated via HPLC, and the area under the curve (AUC) at 220 nm was calculated and compared to the area at t=0. […] Degradation of both compounds to the hydrolysis product was confirmed via mass spectrometry of the resulting byproduct peak.
P. aeruginosa media is observed to become more alkaline over time, making the hydrolytic instability of the homoserine lactone head group a concern in developing AHL-type modulators for use in the wild-type organism. […] To evaluate their stability in a more direct assay, the stability of thiolactone RN22 relative to its lactone homolog E22 was monitored over time and at varying pH values using HPLC. The amount of compound RN22 remaining over 24 h was compared to E22. […] Degradation products were confirmed to be the hydrolyzed lactone head groups via mass spectroscopy.

[4] = target: T1, RhlR; experiment: E. coli RhlR reporter agonism assay (JLD271/pJN105R2/pSC11-rhlI*); format: cell-based, P. aeruginosa; details: compound at 10 μM; RhlR activity relative to 1 mM BHL; E. coli reporter
Description: as §1
To evaluate the modulatory activities of library compounds on RhlR and LasR using E. coli reporters, the strains JLD271/pJN105R2/pSC11-rhlI* and JLD271/pJN105L/pSC11 were used, respectively, as previously described.^38, 51 The following modifications were used in the RhlR agonism reporter assay, non-native compounds (10 μM or 1 mM) were compared to 1 mM BHL as the positive control. Briefly, a subculture was prepared by diluting an overnight culture 1:10 with fresh media containing 100 μg/mL ampicillin and 10 μg/mL gentamicin, and was incubated until it had grown to OD600=0.45. In all assays, L-arabinose was added to a final concentration of 4 mg/mL to induce RhlR expression. For RhlR agonism assays, activities of test compounds were measured relative to 1 mM BHL (the concentration required to induce a maximal level of RhlR activity). For RhlR antagonism assays, test compounds were competed against a concentration of BHL approximately equal to its EC50 value (10 μM). Activity was measured relative to 10 μM BHL. Inhibition was calculated by subtracting 100% from the relative activity value. Thus, 0% inhibition mimics represents no competitive displacement of 10 μM BHL by a test compound. In all assays, modifications were made to the standard Miller assay protocol to accommodate the use of the chlorophenol red-β-D-galactopyranoside (CPRG) β-galactosidase substrate. After cell lysis, 150 μL of the aqueous layer was transferred from each well of a solvent-resistant 96-well microtiter plate to the wells of a new clear, flat-bottom 96-well microtiter plate. CPRG (4 mg/mL in phosphate-buffered saline) was added to each well in 25 μL volumes. Plates were incubated at 30° C. until the positive control wells developed a red color (approximately 30 min). The amount of processed CPRG substrate was assessed by measuring the absorbance of each well at 570 nm. Enzymatic activity was calculated using the following equation: adjusted Miller units=1000·Abs570/(OD600·t·V),
as §2
Because LuxR-type receptors are often unstable in solution, preventing the use of in vitro assays to directly assess small molecule agonism and antagonism, reporter gene assays represent a standard method for screening small-molecule libraries for LuxR-type receptor modulation. Previously reported strains for this purpose were used in the current study.^38 Synthetic N-butanoyl L-homoserine lactone (BHL), the native ligand of RhlR, was used as the positive control for receptor activation. Commonly, agonists are measured relative to maximum possible receptor activation within a particular assay medium;^40 because the dose-response curve of BHL is distinctly shallow in these RhlR reporters, a high concentration of BHL is required to maximally activate RhlR. In this study, activation of compounds was measured relative to that elicited by 1 mM BHL (the concentration of BHL used causes no aberrant growth effects in the reporter strain). […]

[5] = target: T1, RhlR; experiment: P. aeruginosa RhlR reporter agonism assay (PAO-JP2/prhlI-LVAgfp); format: cell-based; details: P. aeruginosa reporter compared with E. coli reporter
Description: as §1, §3, §4
Library compounds J18 and J24, as well as controls BHL and S4, were evaluated for potency in the native genetic background of RhlR by using the P. aeruginosa strain PAO-JP2 (ΔlasIrhlI) harboring the RhlR reporter plasmid prhlI-LVAgfp (Table 3). Because the production of RhlR is dependent on LasR (in LB medium), all assays were performed in the presence of 100 nM OdDHL, enabling immediate transcription of RhlR via LasR activation. […] All compounds also retained similar potencies when screened in the P. aeruginosa background.

| SMILES | IC50 [1] [µM] | Maximum Inhibition (%) [1] [%] | IC50 [2] [µM] | Maximum Inhibition (%) ([2]; P. aeruginosa reporter, relative to activation of 10 μM BHL alone) | fold change of IC50 from E. coli to P. aeruginosa reporter ([2]; vs 10 μM BHL) [fold] | increase of maximum inhibition from E. coli to P. aeruginosa reporter ([2]; vs 10 μM BHL) | half-life at 50 μM ([3]; pH 6, 1 mM MES buffer) [h] | half-life at 50 μM ([3]; pH 7, 1 mM TRIS buffer) [h] | half-life at 50 μM ([3]; pH 8, 1 mM TRIS buffer) [h] | half-life at 50 μM ([3]; pH 9, 1 mM TRIS buffer) [h] | activation at 10 µM [4] [%] | RhlR antagonist activity in words ([1]; E. coli reporter vs 10 μM BHL) | inhibition at 10 µM ([1]; read-out: % inhibition (10 μM), compound at 10 μM in the presence of 10 μM BHL, negative = agonism stronger than 10 μM BHL alone) [%] | inhibition at 1000 µM ([1]; read-out: % inhibition (1 mM), compound at 1 mM in the presence of 10 μM BHL, negative = agonism stronger than 10 μM BHL alone) [%] | RhlR agonist potency in words [5] |
| --- | --- | --- | --- | --- | --- | --- | --- | --- | --- | --- | --- | --- | --- | --- | --- |
| O=C(COc1ccc(I)cc1)NC1CCOC1=O (centres unmarked) [Compound E22, reference compound] | 17.3 | 74 | 23.9 | 96 | ~1.4 | more than 20% | 182 | 48.1 | 10.1 | 2.3 | – | – | – | – | – |
| O=C(NC1CCCC1)C1CCC1 [RN13] | 26.7 | 32 | – | – | – | – | – | – | – | – | 0 | potent antagonist activity; also recorded: two-fold increased potency as measured by IC50 over parent compound RN4; also recorded: undesirable non-monotonic behavior | 24 | 25 | maintained activity between the two different reporters |
